According to PubChem BioAssay (NCI):
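Grown in 96-well plates, cells were treated for 48 hours with each compound at five concentrations. Insufficient inhibition: endpoint recorded as highest concentration tested. Abbreviation: GI50, concentration required for 50% inhibition of growth. Definition used: TGI = concentration required for complete inhibition of growth.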

Key:
Experiment in all cases: growth of human tumour cells (NCI), 48 h
786-0 renal = test system: 786-0 renal
A498 renal = test system: A498 renal
A549 NSCLC = test system: A549 NSCLC
ACHN renal = test system: ACHN renal
BT-549 breast = test system: BT-549 breast
CAKI-1 renal = test system: CAKI-1 renal
CCRF-CEM leukemia = test system: CCRF-CEM leukemia
COLO 205 colon = test system: COLO 205 colon
DU-145 prostate = test system: DU-145 prostate
EKVX NSCLC = test system: EKVX NSCLC
HCT-116 colon = test system: HCT-116 colon
HCT-15 colon = test system: HCT-15 colon
HL-60(TB) leukemia = test system: HL-60(TB) leukemia
HOP-62 NSCLC = test system: HOP-62 NSCLC
HOP-92 NSCLC = test system: HOP-92 NSCLC
HS 578T breast = test system: HS 578T breast
HT29 colon = test system: HT29 colon
IGROV1 ovarian = test system: IGROV1 ovarian
K-562 leukemia = test system: K-562 leukemia
KM12 colon = test system: KM12 colon
LOX IMVI melanoma = test system: LOX IMVI melanoma
M14 melanoma = test system: M14 melanoma
MALME-3M melanoma = test system: MALME-3M melanoma
MCF7 breast = test system: MCF7 breast
MDA-MB-231 breast = test system: MDA-MB-231 breast
MDA-MB-435 = test system: MDA-MB-435
MOLT-4 leukemia = test system: MOLT-4 leukemia
NCI-H226 lung = test system: NCI-H226 lung
NCI-H23 lung = test system: NCI-H23 lung
NCI-H460 lung = test system: NCI-H460 lung
NCI-H522 lung = test system: NCI-H522 lung
NCI/ADR-RES ovarian = test system: NCI/ADR-RES ovarian
OVCAR-3 ovarian = test system: OVCAR-3 ovarian
OVCAR-4 ovarian = test system: OVCAR-4 ovarian
OVCAR-5 ovarian = test system: OVCAR-5 ovarian
OVCAR-8 ovarian = test system: OVCAR-8 ovarian
PC-3 prostate = test system: PC-3 prostate
RPMI-8226 leukemia = test system: RPMI-8226 leukemia
RXF 393 renal = test system: RXF 393 renal
SF-268 CNS = test system: SF-268 CNS
SF-295 CNS = test system: SF-295 CNS
SF-539 CNS = test system: SF-539 CNS
SK-MEL-2 melanoma = test system: SK-MEL-2 melanoma
SK-MEL-28 melanoma = test system: SK-MEL-28 melanoma
SK-MEL-5 melanoma = test system: SK-MEL-5 melanoma
SK-OV-3 ovarian = test system: SK-OV-3 ovarian
SN12C renal = test system: SN12C renal
SNB-19 CNS = test system: SNB-19 CNS
SNB-75 CNS = test system: SNB-75 CNS
SR leukemia = test system: SR leukemia
SW-620 colon = test system: SW-620 colon
T-47D breast = test system: T-47D breast
TK-10 renal = test system: TK-10 renal
U251 CNS = test system: U251 CNS
UACC-257 melanoma = test system: UACC-257 melanoma
UACC-62 melanoma = test system: UACC-62 melanoma
UO-31 renal = test system: UO-31 renal

`CCCCC#CC1=C(Br)C(=O)OC1` showed a GI50 (786-0 renal) of 2 µM, a TGI (786-0 renal) of 5.14 µM and a GI50 (A498 renal) of 18.1 µM. It also gave a TGI (A498 renal) of 33.5 µM, a GI50 (A549 NSCLC) of 17.2 µM and a TGI (A549 NSCLC) of 43.4 µM. For the same compound, the GI50 (ACHN renal) was 2.24 µM, the TGI (ACHN renal) was over 21 µM and the GI50 (BT-549 breast) was 1.8 µM. It also gave a TGI (BT-549 breast) of 5.91 µM, a GI50 (CAKI-1 renal) of 1.26 µM and a TGI (CAKI-1 renal) of 4.63 µM. The GI50 (CCRF-CEM leukemia) was 0.261 µM, the GI50 (COLO 205 colon) was 2.66 µM and the TGI (COLO 205 colon) was over 22.2 µM. It also gave a GI50 (DU-145 prostate) of 0.752 µM, a TGI (DU-145 prostate) of 2.34 µM and a GI50 (EKVX NSCLC) of 3.79 µM. It also gave a TGI (EKVX NSCLC) of 10.7 µM, a GI50 (HCT-116 colon) of 0.139 µM and a TGI (HCT-116 colon) of 0.327 µM. For the same compound, the GI50 (HCT-15 colon) was 1.02 µM, the GI50 (HL-60(TB) leukemia) was 0.249 µM and the TGI (HL-60(TB) leukemia) was over 100 µM. The GI50 (HOP-62 NSCLC) was 7.13 µM, the TGI (HOP-62 NSCLC) was 20.8 µM and the GI50 (HOP-92 NSCLC) was 2.04 µM. For the same compound, the TGI (HOP-92 NSCLC) was 18.7 µM, the GI50 (HS 578T breast) was 3.89 µM and the TGI (HS 578T breast) was 23.1 µM. It also gave a GI50 (HT29 colon) of 2.85 µM, a TGI (HT29 colon) of over 22.1 µM and a GI50 (IGROV1 ovarian) of 0.368 µM. For the same compound, the TGI (IGROV1 ovarian) was 3.33 µM, the GI50 (K-562 leukemia) was 0.279 µM and the TGI (K-562 leukemia) was over 100 µM. It also gave a GI50 (KM12 colon) of 1.8 µM, a TGI (KM12 colon) of 3.89 µM and a GI50 (LOX IMVI melanoma) of 0.318 µM. The GI50 (M14 melanoma) was 1.26 µM, the TGI (M14 melanoma) was 3.71 µM and the GI50 (MALME-3M melanoma) was 1.73 µM. The TGI (MALME-3M melanoma) was 4.13 µM, the GI50 (MCF7 breast) was 1.03 µM and the TGI (MCF7 breast) was 8.08 µM. The GI50 (MDA-MB-231 breast) was 1.78 µM, the TGI (MDA-MB-231 breast) was 4.03 µM and the GI50 (MDA-MB-435) was 2.17 µM. The TGI (MDA-MB-435) was 5.54 µM, the GI50 (MOLT-4 leukemia) was 0.319 µM and the TGI (MOLT-4 leukemia) was over 100 µM. The GI50 (NCI-H226 lung) was 3.76 µM, the TGI (NCI-H226 lung) was 26.6 µM and the GI50 (NCI-H23 lung) was 1.5 µM. The TGI (NCI-H23 lung) was 9.23 µM, the GI50 (NCI-H460 lung) was 14 µM and the TGI (NCI-H460 lung) was 38.8 µM. The GI50 (NCI-H522 lung) was 2.27 µM, the TGI (NCI-H522 lung) was 5.08 µM and the GI50 (NCI/ADR-RES ovarian) was 2.04 µM. For the same compound, the TGI (NCI/ADR-RES ovarian) was 5.9 µM, the GI50 (OVCAR-3 ovarian) was 0.453 µM and the TGI (OVCAR-3 ovarian) was 2.27 µM. The GI50 (OVCAR-4 ovarian) was 3.99 µM, the TGI (OVCAR-4 ovarian) was 11.3 µM and the GI50 (OVCAR-5 ovarian) was 2.73 µM. For the same compound, the TGI (OVCAR-5 ovarian) was 7.38 µM, the GI50 (OVCAR-8 ovarian) was 1.75 µM and the TGI (OVCAR-8 ovarian) was 10.2 µM. For the same compound, the GI50 (PC-3 prostate) was 1.28 µM, the TGI (PC-3 prostate) was 9.43 µM and the GI50 (RPMI-8226 leukemia) was 0.32 µM. For the same compound, the TGI (RPMI-8226 leukemia) was 2.72 µM, the GI50 (RXF 393 renal) was 1.89 µM and the TGI (RXF 393 renal) was 4.57 µM. For the same compound, the GI50 (SF-268 CNS) was 2.47 µM, the TGI (SF-268 CNS) was 10.2 µM and the GI50 (SF-295 CNS) was 6.2 µM. For the same compound, the TGI (SF-295 CNS) was 28.2 µM, the GI50 (SF-539 CNS) was 2.52 µM and the TGI (SF-539 CNS) was 14.4 µM. For the same compound, the GI50 (SK-MEL-2 melanoma) was 3.12 µM, the TGI (SK-MEL-2 melanoma) was 15.2 µM and the GI50 (SK-MEL-28 melanoma) was 3.48 µM. The TGI (SK-MEL-28 melanoma) was 16.4 µM, the GI50 (SK-MEL-5 melanoma) was 0.118 µM and the TGI (SK-MEL-5 melanoma) was 0.366 µM. It also gave a GI50 (SK-OV-3 ovarian) of 36.1 µM, a TGI (SK-OV-3 ovarian) of over 77.2 µM and a GI50 (SN12C renal) of 1.58 µM. The TGI (SN12C renal) was 4.27 µM, the GI50 (SNB-19 CNS) was 12.9 µM and the TGI (SNB-19 CNS) was 37.1 µM. It also gave a GI50 (SNB-75 CNS) of 15.6 µM, a TGI (SNB-75 CNS) of over 100 µM and a GI50 (SR leukemia) of 0.36 µM. For the same compound, the TGI (SR leukemia) was over 100 µM, the GI50 (SW-620 colon) was 0.0237 µM and the TGI (SW-620 colon) was 0.21 µM. For the same compound, the GI50 (T-47D breast) was 5.79 µM, the TGI (T-47D breast) was over 31.6 µM and the GI50 (TK-10 renal) was 1.8 µM. The TGI (TK-10 renal) was 4.53 µM, the GI50 (U251 CNS) was 1.59 µM and the TGI (U251 CNS) was over 20.1 µM. The GI50 (UACC-257 melanoma) was 2.2 µM, the TGI (UACC-257 melanoma) was 5.67 µM and the GI50 (UACC-62 melanoma) was 2.24 µM. It also gave a TGI (UACC-62 melanoma) of 7.1 µM, a GI50 (UO-31 renal) of 1.37 µM and a TGI (UO-31 renal) of 3.1 µM.
